Data on 2 compounds can be found in ChEMBL document CHEMBL5385880, “Design, synthesis and evaluation of the novel chalcone derivatives with 2,2-dimethylbenzopyran as HIF-1 inhibitors that possess anti-angiogenic potential” (Eur J Med Chem, 2023).

The structures appear in SMILES notation. Calls of active or inactive are those of the source. The calls are words filed in the database; no cut-off is given here.

A short description of data set [1]: Subchronic toxicity in Kunming mouse assessed as effect on apparent behavior problem at 50 mg/kg administered via oral gavage measured upto 10 days. The format is organism-based. The following applies: in vivo, 240 h, time < 10 day.
Data set [2] in a line: AUC (0 to t) in Sprague-Dawley rat at 20 mg/kg, iv administered as single dose measured upto 6 hrs by HPLC analysis. The format is ADME, organism-based. On the set-up: dose 20 mg/kg, time < 6 hrs, route iv. The following applies: in vivo.
The nature of data set [3]: Plasma protein binding in Sprague-Dawley rat assessed as free fraction by equilibrium dialysis analysis. The format is ADME, cell-free.
Data set [4] can be described thus: Cmax in Sprague-Dawley rat at 20 mg/kg, iv administered as single dose measured upto 6 hrs by HPLC analysis. Particulars: in vivo. The format is ADME, organism-based. On the set-up: dose 20 mg/kg, time < 6 hrs, route iv.
Data set [5] is described as follows: Metabolic stability in Sprague-Dawley rat liver microsomes at 100 ug/ml measured after 30 mins in presence of NADPH generating system by HPLC analysis. The format is ADME, Microsome. The following applies: at 100 µg/mL, read-out: Stability. For orientation: Liver microsomes are a subcellular fraction often used to study metabolism.
Data set [6] is filed under the species Mus musculus. The data set is described as follows: Anti-angiogenesis activity in VEGF stimulated C57/bl6 mouse assessed as formation of new blood vessels at 20 uM measured after 10 days. The format is functional, organism-based. The following applies: time 10.0 day.
Data set [7] can be described thus: Cytotoxicity against human HUVEC cells assessed as reduction in cell growth incubated for 48 hrs by CCK-8 method. The format is toxicity, cell-based. (In general: Tetrazolium dyes change colour on reduction, which living cells bring about.)
Data set [8] deals with A549. The data set is described as follows: Inhibition of cell invasion in human A549 cells at 0 to 4 uM measured after 24 hrs by calcein-AM staining transwell invasion assay. The format is functional, cell-based. The following applies: dose 0-4 µM.
In data set [9] the test system is A549. The experiment in a line: Cytotoxicity against human A549 cells assessed as reduction in cell growth incubated for 48 hrs by CCK-8 method. The format is functional, cell-based.
A short description of data set [10]: AUC (0 to infinity) in Sprague-Dawley rat at 20 mg/kg, iv administered as single dose measured upto 6 hrs by HPLC analysis. The format is ADME, organism-based. On the set-up: time < 6 hrs, dose 20 mg/kg, route iv. The following applies: in vivo.
In data set [11] the test system is HUVEC. The data set is described as follows: Cytotoxicity against human HUVEC cells assessed as reduction in cell growth at 10 uM incubated for 48 hrs by CCK-8 method. The format is toxicity, cell-based.
The test system of data set [12] is A549. The experiment in a line: Cytotoxicity against human A549 cells assessed as reduction in cell growth at 4 uM incubated for 48 hrs by CCK-8 method. The format is functional, cell-based.
For data set [13], the system named is A549. The data set is described as follows: Inhibition of VEGF induced cell invasion in human A549 cells measured after 24 hrs by calcein-AM staining transwell invasion assay. The following applies: dose 0-4 µM. The format is functional, cell-based.
The nature of data set [14]: Apparent volume of distribution in Sprague-Dawley rat at 20 mg/kg, iv administered as single dose measured upto 6 hrs by HPLC analysis. The format is ADME, organism-based. The following applies: in vivo, read-out: Vz.
Data set [15] concerns A549. The data set is described as follows: Antimigratory activity in human A549 cells assessed as decrease in cell migration at 4 uM incubated for 24 hrs by wound healing assay. The format is functional, cell-based.
The nature of data set [16]: Subchronic toxicity in Kunming mouse assessed as drug tolerance at 50 mg/kg administered via oral gavage measured upto 10 days. Particulars: in vivo, 240 h, time < 10 day. The format is organism-based.
Data set [17] in a line: Clearance in Sprague-Dawley rat at 20 mg/kg, iv administered as single dose measured upto 6 hrs by HPLC analysis. The format is ADME, organism-based. The following applies: in vivo.
A short description of data set [18]: Metabolic stability in Sprague-Dawley rat liver microsomes at 100 ug/ml measured after 60 mins in presence of NADPH generating system by HPLC analysis. The format is ADME, Microsome. Particulars: at 100 µg/mL, read-out: Stability.
Data set [19] can be described thus: Subchronic toxicity in Kunming mouse assessed as side effects at 50 mg/kg administered via oral gavage measured upto 10 days. The following applies: in vivo, 240 h, time < 10 day. The format is organism-based.
Data set [20] in a line: Metabolic stability in Sprague-Dawley rat liver microsomes at 100 ug/ml measured after 120 mins in presence of NADPH generating system by HPLC analysis. The format is ADME, Microsome. Particulars: at 100 µg/mL, read-out: Stability.
Data set [21] is described as follows: Half life in Sprague-Dawley rat at 20 mg/kg, iv administered as single dose measured upto 6 hrs by HPLC analysis. The following applies: in vivo. The format is ADME, organism-based.
Data set [22] in a line: Tmax in Sprague-Dawley rat at 20 mg/kg, iv administered as single dose measured upto 6 hrs by HPLC analysis. The format is ADME, organism-based. Particulars: in vivo.
Data set [23] relates to HUVEC. The experiment in a line: Antiangiogenic activity in HUVEC assessed as inhibition of VEGF-induced tube formation measured after 12 hrs by matrigel based analysis. The format is functional, cell-based. The following applies: Homo sapiens, dose 0-8 µM.
The subject of data set [24] is Mus musculus. The data set is described as follows: Anti-angiogenesis activity in VEGF stimulated C57/bl6 mouse implanted with matrigel assessed as appearance of hemoglobin content in matrigel plug at 1.25 to 20 uM measured after 10 days. Particulars: dose 1.25-20 µM, time 10.0 day. The format is functional, organism-based.
Data set [25] can be described thus: Metabolic stability in Sprague-Dawley rat liver microsomes assessed as half life at 100 ug/ml measured upto 120 mins in presence of NADPH generating system by HPLC analysis. The format is ADME, Microsome. The following applies: dose 100 µg/ml.
A short description of data set [26]: Subchronic toxicity in Kunming mouse assessed as effect on body weight at 50 mg/kg administered via oral gavage measured upto 10 days. Particulars: in vivo, 240 h, time < 10 day. The format is organism-based.
The species named for data set [27] is Mus musculus. The data set is described as follows: Anti-angiogenesis activity in VEGF stimulated C57/bl6 mouse assessed as decrease in number of blood vessels at 1.25 to 20 uM measured after 10 days. The format is functional, organism-based. Particulars: dose 1.25-20 µM, time 10.0 day.
Data set [28] in a line: Metabolic stability in Sprague-Dawley rat liver microsomes at 100 ug/ml measured after 10 mins in presence of NADPH generating system by HPLC analysis. The format is ADME, Microsome. The following applies: at 100 µg/mL, read-out: Stability.
Data set [29] is described as follows: Subchronic toxicity in Kunming mouse assessed as adverse events at 50 mg/kg administered via oral gavage measured upto 10 days. The format is organism-based. The following applies: in vivo, 240 h, time < 10 day.
For a further data set, the system named is T47D. The experiment in a line: Cytotoxicity activity against human T47D cells. The format is functional, cell-based.

Consider `COc1ccc(/C=C/C(=O)c2ccc3c(c2O)C=CC(C)(C)O3)cc1OCCCN1CCCC1`, for which the Activity result is “Non-Toxic” in data set [1]; “Non-Toxic” in the data set with HUVEC [11]; “Non-Toxic” in [16]; “Non-Toxic” in data set [19]; “Dose-Dependent Effect” in the data set with HUVEC [23]; “Non-Toxic” in data set [26]. In addition, the Activity entry in [29] is given as “Non-Toxic”. Besides, the AUC(0-t) at 6 h in [2] came out at 5.27 µM·h. The fraction unbound in data set [3] is 0.88. In addition, in data set [4], the peak level (Cmax) was 7.06 µM. In addition, the remaining at 0.5 h, 100 ug/ml in data set [5] came to 77%. Also, the outcome in the data set listed under Mus musculus [6] and in the data set on A549 [12] was inactive. In data set [7], the IC50 at 48 h stood at 19.6 µM. In addition, the IC20 at 48 h in data set [7] (time 48 hrs) came out at 10.6 µM. Also, the inhibition entry in the data set with A549 [8] was “Active”. The IC50 in the data set on A549 [9] (A549, 48 h) stood at 8.88 µM. The IC20 in the data set with A549 [9] (A549, time 48 hrs) came to 4.19 µM. This compound yielded an AUC(0-inf) in data set [10] of 8.88 µM·h. For the same compound, the inhibition entry in the data set with A549 [13] is “Dose-Dependent Effect”. Further, the Vd in data set [14] was 5.59 L. For the same compound, the outcome in the data set on A549 [15], with Mus musculus [24] and in the data set filed under Mus musculus [27] was Active. Besides, the clearance in data set [17] is 39.5 mL/min. Besides, the remaining at 1 h, 100 ug/ml in [18] amounted to 60%. In data set [20], the remaining at 2 h, 100 ug/ml stood at 51%. Besides, the half-life in data set [21] is 1.64 h. Also, the Tmax in data set [22] turned out to be 1.98 min. Also, in [25], the half-life at 100 ug/ml amounted to 2.3 h. Also, the remaining at 10 min, 100 ug/ml in data set [28] came to 90%.
With `COc1ccc([C@@H](O)[C@@H](C)Oc2ccc([C@H]3O[C@H](c4ccc(O[C@H](C)[C@H](O)c5ccc(OC)c(OC)c5)c(OC)c4)[C@H](C)[C@H]3C)cc2OC)cc1OC`, the IC50 with T47D worked out at 0.003 µM.

The AUC(0-t) is exposure summed from dosing to a finite time, without extrapolation to infinity. Usually fraction unbound stands for free concentration divided by total concentration. Usually Cmax stands for the maximum level reached in the sampled fluid or tissue. For orientation: IC50 means the concentration needed to halve the response being measured. As usually defined, the IC20 is the point of the concentration-response curve where the effect stands at 20%. What is called AUC(0-inf) is the area under the concentration-time curve extrapolated to infinity. Broadly, the clearance is the volume of plasma or blood freed of the substance per unit of time. The term half-life denotes the time in which the quantity being followed falls by half. A word on the Tmax: it is the time from dosing to the highest level.
